Source: publication PMC12648310, “Modular Assembled Targeting Chimera Enables Multimodal Targeted Protein Degradation” (JACS Au, 2025)
Where two headings read alike, the source gives them in different places.

Columns and labels:
[1] = Pharmacokinetics in SD rats; format: in vivo, Sprague–Dawley (SD) rats; conditions: for half-life / AUC(0-inf) / AUC(0-t) / Cmax / Tmax / bioavailability / MRT inf / C0 / Vd / clearance: male, Sprague-Dawley, rat, plasma; for MRT inf: read-out: MRTinf_obs; for clearance: read-out: CL_obs
Protocol: Given the favorable cellular performance of the POM-dmTz and JQ1-TCO stoichiometric ratio, we further investigated their in vivo pharmacokinetic (PK) profiles (Figure ). […] Blood samples were collected from the jugular vein at 5 min, 15 min, 30 min, 1, 2, 4, 7, and 24 h postdosing for drug concentration analysis.
This pharmacokinetic study protocol used SPF grade male SD rats (6-8 weeks old, weight 200-300g, supplied by a biotechnology company in Beijing) to evaluate the metabolic characteristics of compound GP262 through intravenous injection (IV) and intraperitoneal injection (IP). The IV group received a dose of 5 mg/kg (2.5 mg/mL concentration, 2 mL/kg administration), while the IP group […]
consisted of 3 fasted animals. The IV group solvent was a mixed system containing 10% DMSO, 60% PEG400, and 30% water. Collect whole blood samples at 5 minutes, 15 minutes, 0.5 hours, 1, 2, 4, 7, and 24 hours after administration. Immediately after collection with EDTA-K2 anticoagulant tube, centrifuge at 4 ℃ and 4000 × g for 5 minutes. Separate the plasma and transfer it to an anticoagulant free EP tube. Store it at -75 ± 15 ℃ for testing at ultra-low temperature. Throughout the experiment, a dual drug group parallel control was set up, and standardized operating procedures were used to ensure the timeliness and storage stability of plasma separation, providing standardized biological samples for subsequent LC-MS/MS analysis. […]

[2] = molecular target: T1, BRD4 (Homo sapiens, UniProt O60885); test: Immunoblot of BRD4 degradation in MDA-MB-231 cells; format: cell-based; conditions: component without its click partner
T1 construct: Western blot analysis of BET protein levels was performed across these 11 module assembly combinations; endogenous in cells; host or cells: MDA-MB-231
Protocol: deprotection under General Procedure I, followed by condensation with compound 4 under General Procedure II, yielded AN2-C3-Tz as a purple oil in 60% yield (over two steps from 25).
The full NMR and MS spectra of the synthesized degrader compounds were shown in Appendix A and B, respectively. The degrader compounds were dissolved in DMSO as 10 mM stock solution and stored at -20℃, freeze-thaw cycle was avoided. Inhibitors for bioassays were purchased from […]
Cell culture and drug treatment
The breast cancer cells and leukemia cells used were purchased from Wuhan Purdue Life Technology Co., Ltd. All cell lines were tested for mycoplasma to ensure no contamination. […]
The fluorescence spectrum of POM-dTz was measured using a Hitachi F4500. […]
P0013G) premixed with a protease inhibitor cocktail. […] The supernatant was quantified and adjusted using a bicinchoninic acid (BCA) method and then boiled in an SDS loading buffer. […] After another 3 washes with TBST, the membrane was incubated with an enzymatic chemiluminescence (ECL) reagent, and the signal was detected instantly by a chemiluminescence imager (JP-K600, Jiapeng, Shanghai, China).
The signal values were quantified by ImageJ software. The expression level of a target protein was determined by the ratio of its signal value to GAPDH’s. […]

Row | SMILES | half-life ([1]; IP 10 mg/kg) | AUC(0-inf) ([1]; IV 5 mg/kg, mean) | AUC(0-t) ([1]; IV 5 mg/kg, mean) | C0 ([1]; IV 5 mg/kg, mean) | Vd ([1]; IV 5 mg/kg, mean) | half-life ([1]; IV 5 mg/kg, mean) | clearance ([1]; IV 5 mg/kg, mean) | MRT inf ([1]; IV 5 mg/kg, mean) | BRD4 degradation by single component alone [2] | also measured
1 | Cc1sc2c(c1C)C(c1ccc(Cl)cc1)=NC(CC(=O)NCCNC(=O)OC1CCC=CCCC1)c1nnc(C)n1-2 (stereo not shown) [JQ1-TCO] | ~124 min | 1240 ng·h/mL | 1240 ng·h/mL | 2030 ng/mL | 10.3 L/kg | 118 min | 69 mL/min/kg | 44 min | neither component alone triggered detectable degradation | AUC(0-inf) ([1]; IP 20 mg/kg, mean): 7670 ng·h/mL; AUC(0-t) ([1]; IP 20 mg/kg, mean): 7660 ng·h/mL; Cmax ([1]; IP 20 mg/kg, mean): 1860 ng/mL; Tmax ([1]; IP 20 mg/kg, mean): 25 min; bioavailability ([1]; IP 20 mg/kg, mean): 64%; half-life ([1]; IP 20 mg/kg, mean): 124 min; MRT inf ([1]; IP 20 mg/kg, mean): 193 min
2 | Cc1nnc(CNC(=O)CCOCC(COCCC(=O)NCc2nnc(C)nn2)NC(=O)COc2cccc3c2C(=O)N(C2CCC(=O)NC2=O)C3=O)nn1 (stereo not shown) [POM-dmTz] | 22.6 min | 500 ng·h/mL | 496 ng·h/mL | 1850 ng/mL | 9.39 L/kg | 40.2 min | 171 mL/min/kg | 21.3 min | neither component alone triggered detectable degradation | T1/2 ([1]; IP 10 mg/kg): shorter half-life; AUC(0-inf) ([1]; IP 10 mg/kg, mean): 406 ng·h/mL; AUC(0-t) ([1]; IP 10 mg/kg, mean): 405 ng·h/mL; Cmax ([1]; IP 10 mg/kg, mean): 398 ng/mL; Tmax ([1]; IP 10 mg/kg, mean): 25 min; bioavailability ([1]; IP 10 mg/kg, mean): 40.5%
